Results published in patent US9670200B2, “Quaternary ammonium salt prodrugs” (Alkermes Pharma Ireland Limited, priority 2010, dated 2017).
Read-outs that look alike come from different tables or passages of the source. Each block holds one compound with its values, some of them ahead of it.

How the values were obtained:
[1] = From the text: At pH 4 and 5, 0.1 M citrate buffers were used, while for pH 6, 7 and 8a set of 0.1 M phosphate buffers were used. Each buffer also contained 0.2 M NaCl. No cosolvents or other potentially solubilizing components were included. Buffer preparations were subdivided in order to individually test the solubility of only one material in a given buffer sample.
[2] = Pharmacokinetic evaluation of asenapine and asenapine prodrugs in rats; format: in vivo, Sprague-Dawley rats; conditions: rat, 10 mg/rat IM
Procedure: Animals: 18 Male Sprague-Dawley rats (Charles River Laboratories, Wilmington, Mass.) were used in the study. Three groups of 6 rats were used and are referred to in this study as Groups A, B and C. Rats were approximately 350-375 g at time of arrival. Rats are housed 2 per cage with ad libitum chow and water. Environmental conditions in the housing room: 64-67° F., 30% to 70% relative humidity, and 12:12-h light: dark cycle. All experiments were approved by the institutional animal care and use committee.
Test Compounds: The following formulations of Asenapine parent drug and prodrug compounds of the invention were used in the study.
Pharmacokinetics study: Rats were dosed IM by means of a 23 gauge, 1 in. needle with 1 cc syringe 0.3 mL suspension was withdrawn from the vial containing the test compound. The rat was injected in the muscles of the hind limb after anesthesia with isoflurane. Blood samples were collected via a lateral tail vein after brief anesthesia with Isoflurane. A 271/2 G needle and 1 cc syringe without an anticoagulant was used for the blood collection. Approximately 350 μL of whole blood was collected at each sampling time point of 6 hours, 24 hours and 2, 5, 7, 9, 12, 14, 21, 28, 35 days after administration. Once collected, whole blood was immediately transferred to tubes containing K2 EDTA, inverted 10-15 times and immediately placed on ice. The tubes were centrifuged for 2 minutes at >14,000 g′ s (11500 RPMs using Eppendorf Centrifuge 5417C, F45-30-11 rotor) at room temperature to separate plasma. Plasma samples were transferred to labeled plain tubes (MICROTAINER®; MFG# BD5962) and stored frozen at <−70° C.
Drug concentrations in plasma samples were analyzed by liquid chromatography-mass spectroscopy using appropriate parameters for each compound. Half-life, volume of distribution, clearance, maximal concentration, and AUC were calculated by using WinNonlin version 5.2 software (Pharsight, St. Louis, Mo.).

[3] = Solution stability of asenapine prodrugs as a function of pH; format: physicochemical; conditions: 0.01M buffers pH 2.11-9.01 with acetonitrile, 25° C., HPLC at 1, 4, 10, 24 hours; compared with asenapine octanoate (FIGS. 1 and 2)
Procedure: The asenapine derived prodrugs were prepared at approximately 300 ug/mL in buffers with acetonitrile (see table of buffers below). The initial ratio of prodrug/parent was measured using a freshly prepared solution in unbuffered water. Acetonitrile was titrated into all samples as needed to ensure the complete dissolution of the compounds. The amount of acetonitrile varied depending on the solubility of each compound (see Note 1). 1.5 mL of each stability sample was transferred into a HPLC vial and the vials were maintained at 25° C. in the temperature controlled sample compartment of the HPLC. Each sample was assayed by HPLC after 1, 4, 10, and 24 hours for prodrug and asenapine content (see Note 2).
The fraction of prodrug remaining at each time point was calculated as Fraction Prodrug=(HPLC Area of Prodrug)/(HPLC area of prodrug+asenapine)(see Note 3). The loss of prodrug was then fit to the equation for first order decay: Fraction Prodrug=(Initial Fraction prodrug)*e^−kt where t=time (in hours) and k is the rate constant for decay. Finally, the half-lives were calculated as: t1/2=0.693/k
Note 1: The acetonitrile concentration is not expected to have a large impact on the degradation rate since the rate follows first order decay with respect to compound (ie, the rate constant is independent of the concentration). […]

Compound: Cc1cc2c(s1)Nc1ccccc1N=C2N1CCN(C)CC1.O.O=C(O)c1cc2ccccc2c(Cc2c(O)c(C(=O)O)cc3ccccc23)c1O [olanzapine pamoate salt, olanzapine pamoate, reference compound]
variation in solubility across the pH range studied ([1]; room temperature, 0.1 M citrate (pH 4, 5) or phosphate (pH 6, 7, 8) buffers with 0.2 M NaCl, pH range 4-9 (FIG. 4)): > 10 fold

Compound: CCC(C)(C)C(=O)OC[N+]1(C)CC2c3ccccc3Oc3ccc(Cl)cc3C2C1.[I-] (stereo not drawn) [ASN-83, 5-chloro-2-(((2,2-dimethylbutanoyl)oxy)methyl)-2-methyl-2,3,3a,12b-tetrahydro-1H-dibenzo[2,3:6,7]oxepino[4,5-c]pyrrol-2-ium iodide]
Cmax of the Asenapine released ([2]; plasma, compared with parent Asenapine formulation and Asenapine palmitate prodrug (FIG. 3)): lower

Compound: CCC(C)(C)C(=O)OC[N+]1(C)CC2c3ccccc3Oc3ccc(Cl)cc3C2C1.[I-] (stereo not drawn) [Asenapine dimethyl butyrate prodrug, asenapine (α,α)-dimethyl butyrate iodide]
decrease in plasma concentration over all the time points sampled ([2]; 6 hours to 35 days, compared with Asenapine or Asenapine palmitate prodrug): more gradual decrease | duration of asenapine pharmacokinetics in the animals ([2]; compared with Asenapine or Asenapine palmitate prodrug): longer duration

The next lines start with the values.

variation in solubility across the pH range studied [1]: less than 2 fold
Compound: CCCCCCCCCCCCC(C)(C)C(=O)OC[N+]1(C)CCN(C2=Nc3ccccc3Nc3sc(C)cc32)CC1.[I-] [Compound 18, 1-(((2,2-dimethyltetradecanoyl)oxy)methyl)-1-methyl-4-(2-methyl-10H-benzo[b]thieno[2,3-e][1,4]diazepin-4-yl)piperazin-1-ium iodide]

Solution stability as a function of pH [3]: more stable
Compound: CC(C)(C)C(=O)OC[N+]1(C)CC2c3ccccc3Oc3ccc(Cl)cc3C2C1.[Cl-] (stereo not drawn) [asenapine pivalate, asenapine pivalate prodrug]
